Consider 15 compounds from patent publication US20230373985A1 (Origenis Gmbh, priority 2020, published 2023).

The target in assay [1] is T1, G2019S human LRRK2, catalytic site (Homo sapiens, UniProt Q5S007, G2019S).
T1 construct: G2019S human LRRK2, catalytic site; purchased ThermoFisher
Briefly: TR-FRET LanthaScreen Eu Kinase Binding Assay, LRRK2 G2019S. The conditions noted are these: LRRK2(G2019); one range stated for wt and G2019; read-out: IC50, Activity Toward LRRK2(G2019). Put shortly:
(§1)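 Tracer-displacement binding: compound mixed with kinase/Eu-antibody and Kinase Tracer 236 in 1× Kinase Buffer A, 1 h at room temperature, then TR-FRET emission ratio read. LRRK2 (wt or G2019S) 5 nM with 2 nM Eu-anti-GST, 10 nM tracer; NUAK1 8 nM with 2 nM Eu-anti-His, 5 nM tracer.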
A general note: Time-resolved FRET reads energy transfer from a long-lived donor to a nearby acceptor.

The target of assay [2] is T2, wt human LRRK2, catalytic site (Homo sapiens, UniProt Q5S007).
T2 construct: 5 nM wt human LRRK2, catalytic site; purchased ThermoFisher
As to the kind of experiment: TR-FRET LanthaScreen Eu Kinase Binding Assay, LRRK2 wt. Conditions: one range stated for wt and G2019, read-out: IC50, Activity Toward LRRK2(Wt). Put shortly: as §1

Assay [3] addresses T3, wt human JAK2, catalytic site (Homo sapiens, UniProt O60674).
T3 construct: wt human JAK2, catalytic site; purchased SignalChem
As to the kind of experiment: HTRF KinEASE assay, JAK2. Type of assay: biochemical. Conditions: assay format not given (Z'-LYTE or HTRF KinEASE); read-out: IC50, Activity Toward JAK2. An outline of the steps:
(§2)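 HTRF KinEASE-TK readout with 1 μM biotinylated TK substrate in 1× kinase buffer, ≥30 min at room temperature, then antibody/streptavidin-XL665 detection for 60 min. TYK2 at 2 nM with 1 μM ATP; JAK2 at 1 nM with 100 μM ATP. Analysis uses emission ratios.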

Assay [4] concerns the target T4, wt human TYK2, catalytic site (Homo sapiens, UniProt P29597).
T4 construct: wt human TYK2, catalytic site; purchased SignalChem
T4 sequence (P29597 897-1176 limits assumed): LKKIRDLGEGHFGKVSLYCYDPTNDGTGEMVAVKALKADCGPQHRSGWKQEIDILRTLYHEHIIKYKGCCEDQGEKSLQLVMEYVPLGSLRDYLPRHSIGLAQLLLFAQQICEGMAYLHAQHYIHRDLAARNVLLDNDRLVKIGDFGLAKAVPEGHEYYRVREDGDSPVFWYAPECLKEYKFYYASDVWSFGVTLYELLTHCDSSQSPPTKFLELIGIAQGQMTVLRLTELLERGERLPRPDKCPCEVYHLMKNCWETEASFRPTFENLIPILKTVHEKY
Briefly: HTRF KinEASE assay, TYK2. Format: biochemical. Conditions: 1 μM ATP; read-out: IC50, Activity Toward TYK2. An outline of the steps:
as §2

Assay [5] addresses T5, wt human NUAK1, full length (Homo sapiens, UniProt O60285).
T5 construct: 8 nM wt human NUAK1, full length (ThermoFisher/USA); purchased ThermoFisher
T5 sequence (O60285 1-661): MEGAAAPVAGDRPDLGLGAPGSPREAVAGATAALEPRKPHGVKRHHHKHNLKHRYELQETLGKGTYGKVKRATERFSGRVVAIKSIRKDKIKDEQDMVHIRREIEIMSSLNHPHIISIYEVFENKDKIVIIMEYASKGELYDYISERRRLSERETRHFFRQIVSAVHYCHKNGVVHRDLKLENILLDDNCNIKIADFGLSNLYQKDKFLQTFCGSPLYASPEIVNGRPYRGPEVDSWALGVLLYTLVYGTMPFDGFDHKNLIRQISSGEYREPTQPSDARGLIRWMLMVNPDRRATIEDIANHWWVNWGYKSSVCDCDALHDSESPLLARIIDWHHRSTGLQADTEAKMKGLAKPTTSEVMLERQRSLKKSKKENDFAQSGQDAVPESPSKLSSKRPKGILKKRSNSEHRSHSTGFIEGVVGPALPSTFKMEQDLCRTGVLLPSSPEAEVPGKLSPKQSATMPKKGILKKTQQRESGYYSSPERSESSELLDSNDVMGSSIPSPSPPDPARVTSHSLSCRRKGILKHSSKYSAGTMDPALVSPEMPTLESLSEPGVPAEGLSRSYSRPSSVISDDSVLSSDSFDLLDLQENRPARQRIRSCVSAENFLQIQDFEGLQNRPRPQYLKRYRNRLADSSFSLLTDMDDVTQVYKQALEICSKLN
Briefly: TR-FRET LanthaScreen Eu Kinase Binding Assay, NUAK1. The conditions noted are these: read-out: IC50, Activity Toward NUAK1. Put shortly: as §1

The target of assay [6] is T6, wt human JAK1, catalytic site (Homo sapiens, UniProt P23458).
T6 construct: wt human JAK1, catalytic site; purchased ThermoFisher
Briefly: HTRF KinEASE assay, JAK1. Conditions: 2.5 μM ATP; read-out: IC50, Activity Toward JAK1. Type of assay: biochemical. Put shortly:
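Two-step HTRF KinEASE assay: compound, kinase/biotinylated TK substrate and ATP were incubated at least 30 min at room temperature. Antibody plus streptavidin-XL665 was then added and plates were read after 60 min. Inhibition was derived from emission ratios according to the kit protocol.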

T2 sequence (Q5S007 970-2527 limits assumed): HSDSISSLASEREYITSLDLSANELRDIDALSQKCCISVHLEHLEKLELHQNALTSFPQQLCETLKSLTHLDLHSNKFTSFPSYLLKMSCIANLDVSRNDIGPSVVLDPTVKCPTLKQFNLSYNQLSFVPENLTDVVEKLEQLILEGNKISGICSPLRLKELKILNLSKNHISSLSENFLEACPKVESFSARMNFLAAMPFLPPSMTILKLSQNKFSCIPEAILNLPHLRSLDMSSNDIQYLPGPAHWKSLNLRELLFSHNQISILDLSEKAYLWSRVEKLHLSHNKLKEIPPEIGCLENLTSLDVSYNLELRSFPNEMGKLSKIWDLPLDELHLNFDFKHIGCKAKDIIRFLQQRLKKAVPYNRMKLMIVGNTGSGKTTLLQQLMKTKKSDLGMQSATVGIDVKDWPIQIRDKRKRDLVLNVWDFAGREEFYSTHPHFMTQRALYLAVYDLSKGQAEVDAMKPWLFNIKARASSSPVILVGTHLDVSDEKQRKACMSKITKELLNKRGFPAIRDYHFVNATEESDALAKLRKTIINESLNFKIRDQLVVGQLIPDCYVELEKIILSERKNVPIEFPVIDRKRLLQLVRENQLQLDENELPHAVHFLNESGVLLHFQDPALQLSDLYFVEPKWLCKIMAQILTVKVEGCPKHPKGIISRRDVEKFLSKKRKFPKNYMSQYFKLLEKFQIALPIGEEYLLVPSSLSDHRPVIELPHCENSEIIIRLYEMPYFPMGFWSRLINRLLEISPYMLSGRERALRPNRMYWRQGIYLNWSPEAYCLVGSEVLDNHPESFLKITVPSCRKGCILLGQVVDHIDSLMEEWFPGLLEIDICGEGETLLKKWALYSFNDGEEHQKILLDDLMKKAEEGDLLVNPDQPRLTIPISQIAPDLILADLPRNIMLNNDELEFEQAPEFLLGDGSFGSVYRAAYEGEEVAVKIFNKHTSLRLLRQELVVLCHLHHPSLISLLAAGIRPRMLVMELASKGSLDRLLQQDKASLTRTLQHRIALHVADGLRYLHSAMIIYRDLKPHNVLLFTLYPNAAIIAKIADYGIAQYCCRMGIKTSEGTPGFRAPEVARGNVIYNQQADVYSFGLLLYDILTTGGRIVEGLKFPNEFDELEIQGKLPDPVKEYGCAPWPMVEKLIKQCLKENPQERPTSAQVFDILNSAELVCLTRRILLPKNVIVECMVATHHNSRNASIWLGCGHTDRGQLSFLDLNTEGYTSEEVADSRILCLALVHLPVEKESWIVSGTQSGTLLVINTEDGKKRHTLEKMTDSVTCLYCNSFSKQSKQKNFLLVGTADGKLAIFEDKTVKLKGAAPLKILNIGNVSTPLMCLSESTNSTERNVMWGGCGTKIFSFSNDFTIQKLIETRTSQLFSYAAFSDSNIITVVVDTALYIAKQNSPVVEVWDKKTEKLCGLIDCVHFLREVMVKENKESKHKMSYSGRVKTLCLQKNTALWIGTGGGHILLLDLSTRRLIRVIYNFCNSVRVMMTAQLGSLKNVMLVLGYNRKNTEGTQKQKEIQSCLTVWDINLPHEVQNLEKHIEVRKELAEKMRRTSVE
T3 sequence (O60674 849-1124 limits assumed): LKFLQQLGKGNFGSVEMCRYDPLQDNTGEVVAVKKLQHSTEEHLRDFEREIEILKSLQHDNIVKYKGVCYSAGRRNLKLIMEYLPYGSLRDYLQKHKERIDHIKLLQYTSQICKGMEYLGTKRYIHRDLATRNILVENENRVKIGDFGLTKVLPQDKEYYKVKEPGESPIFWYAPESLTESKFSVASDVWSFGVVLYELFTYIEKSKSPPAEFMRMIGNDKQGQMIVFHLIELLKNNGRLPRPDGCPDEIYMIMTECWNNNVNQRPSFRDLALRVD
T1 sequence (Q5S007 970-2527 G2019S limits assumed): as the sequence (Q5S007 970-2527 limits assumed) above, with G1050S counted along it
T6 sequence (P23458 875-1153 limits assumed): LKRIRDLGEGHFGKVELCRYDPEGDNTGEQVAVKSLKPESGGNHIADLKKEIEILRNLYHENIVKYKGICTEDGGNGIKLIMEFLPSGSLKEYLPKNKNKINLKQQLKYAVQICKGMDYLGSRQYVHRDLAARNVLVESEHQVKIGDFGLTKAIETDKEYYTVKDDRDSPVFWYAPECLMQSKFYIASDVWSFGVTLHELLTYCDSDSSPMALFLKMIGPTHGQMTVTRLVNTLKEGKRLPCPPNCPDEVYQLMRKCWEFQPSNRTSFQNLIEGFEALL

The term IC50 denotes the concentration needed to halve the response being measured. As for `NC(=O)c1nn(-c2c(F)cccc2F)cc1Nc1ccc(C(=O)N2CCOCC2)cc1` [compound 12, 1-(2,6-difluorophenyl)-4-((4-(morpholine-4-carbonyl)phenyl)amino)-1H-pyrazole-3-carboxamide], the IC50 lay within 10 to 100 nM in assay [1]; 10 to 100 nM in assay [2]; 100 to 1000 nM in assay [3]; 10 to 100 nM in assay [4]; 100 to 1000 nM in assay [5]; 100 to 1000 nM in assay [6].
Consider `NC(=O)c1nn(-c2c(F)cccc2F)cc1Nc1ccc(C(=O)NC2CCOCC2)cc1` [compound 13, 1-(2,6-difluorophenyl)-4-((4-((tetrahydro-2H-pyran-4-yl)carbamoyl)phenyl)amino)-1H-pyrazole-3-carboxamide], for which the IC50 was 100 to 1000 nM in assay [1]; 100 to 1000 nM in assay [2]; 100 to 1000 nM in assay [3]; 10 to 100 nM in assay [4]; 10 to 100 nM in assay [5]; 100 to 1000 nM in assay [6].
On to `NC(=O)c1nn(-c2c(F)cccc2Cl)cc1Nc1ccc(C(=O)N2CCOCC2)cc1` [compound 22, 1-(2-chloro-6-fluorophenyl)-4-((4-(morpholine-4-carbonyl)phenyl)amino)-1H-pyrazole-3-carboxamide], for which the IC50 in assay [1] was 100 to 1000 nM; in assay [2], 100 to 1000 nM; in assay [3], 100 to 1000 nM; in assay [4], < 10 nM; in assay [5] it was 10 to 100 nM; in assay [6], 10 to 100 nM.
Regarding `CN1CCN(C(=O)c2ccc(Nc3cn(-c4c(F)cccc4Cl)nc3C(N)=O)cc2)CC1` [compound 36, 1-(2-chloro-6-fluorophenyl)-4-((4-(4-methylpiperazine-1-carbonyl)phenyl)amino)-1H-pyrazole-3-carboxamide], the IC50 in assay [1] was 10 to 100 nM; in assay [2], 10 to 100 nM; in assay [3], 100 to 1000 nM; in assay [4], < 10 nM; in assay [5] it was 100 to 1000 nM; in assay [6] it was 10 to 100 nM.
Take `NC(=O)c1nn(-c2c(F)cccc2Cl)cc1Nc1ccc(-c2nnc3n2CCCC3)cc1` [compound 58, 1-(2-chloro-6-fluorophenyl)-4-((4-(5,6,7,8-tetrahydro-[1,2,4]triazolo[4,3-a]pyridin-3-yl)phenyl)amino)-1H-pyrazole-3-carboxamide]: the IC50 in assay [1] is 10 to 100 nM; in assay [2], 10 to 100 nM; in assay [3] it was 100 to 1000 nM; in assay [4], < 10 nM; in assay [5], 100 to 1000 nM; in assay [6] it was 10 to 100 nM.
As to `NC(=O)c1nn(-c2c(F)cccc2Cl)cc1Nc1ccc(-c2nnc3n2CCOC3)cc1` [compound 62, 1-(2-chloro-6-fluorophenyl)-4-((4-(6,8-dihydro-5H-[1,2,4]triazolo[3,4-c][1,4]oxazin-3-yl)phenyl)amino)-1H-pyrazole-3-carboxamide], the IC50 is 10 to 100 nM in assay [1]; 10 to 100 nM in assay [2]; 100 to 1000 nM in assay [3]; < 10 nM in assay [4]; 100 to 1000 nM in assay [5]; 100 to 1000 nM in assay [6].
In the case of `CCn1cnnc1-c1ccc(Nc2cn(-c3c(Cl)cccc3Cl)nc2C(N)=O)cc1` [compound 87, 1-(2,6-dichlorophenyl)-4-((4-(4-ethyl-4H-1,2,4-triazol-3-yl)phenyl)amino)-1H-pyrazole-3-carboxamide], the IC50 in assay [1] is 100 to 1000 nM; in assay [2], 100 to 1000 nM; in assay [3], 100 to 1000 nM; in assay [4] it was < 10 nM; in assay [5], 100 to 1000 nM; in assay [6], 10 to 100 nM.
Turning to `Cn1cnnc1-c1ccc(Nc2cn(-c3c(Cl)cccc3Cl)nc2C(N)=O)cc1` [compound 88, 1-(2,6-dichlorophenyl)-4-((4-(4-methyl-4H-1,2,4-triazol-3-yl)phenyl)amino)-1H-pyrazole-3-carboxamide], the half-inhibitory concentration (IC50) in assay [1] is 100 to 1000 nM; in assay [2], 100 to 1000 nM; in assay [3], 100 to 1000 nM; in assay [4], < 10 nM; in assay [5], 100 to 1000 nM; in assay [6] it was 10 to 100 nM.
For the compound `NC(=O)c1nn(-c2c(Cl)cccc2Cl)nc1Nc1ccc(-c2nnn[nH]2)cc1` [compound 103, 2-(2,6-Dichloro-phenyl)-5-[4-(1H-tetrazol-5-yl)-phenylamino]-2H-[1,2,3]triazole-4-carboxylic acid amide], the IC50 fell in the range of 100 to 1000 nM in assay [3], 10 to 100 nM in assay [4], 100 to 1000 nM in assay [5] and 10 to 100 nM in assay [6].
As for `Cn1nnnc1-c1ccc(Nc2nn(-c3c(Cl)cccc3Cl)nc2C(N)=O)cc1` [compound 104], the IC50 in assay [3] was 100 to 1000 nM; in assay [4], < 10 nM; in assay [5], 100 to 1000 nM; in assay [6], 10 to 100 nM.
As for `CN(C)[C@H]1CCN(C(=O)c2ccc(Nc3nn(-c4c(Cl)cccc4Cl)nc3C(N)=O)cc2)C1` [compound 105, 2-(2,6-Dichloro-phenyl)-5-[4-((S)-3-dimethylamino-pyrrolidine-1-carbonyl)-phenylamino]-2H-[1,2,3]triazole-4-carboxylic acid amide], the IC50 in assay [3] was 100 to 1000 nM; in assay [4], < 10 nM; in assay [5], 100 to 1000 nM; in assay [6], < 10 nM.
As for `NC(=O)c1nn(-c2c(Cl)cccc2Cl)nc1Nc1ccc(C(=O)N2CC[C@@H](F)C2)cc1` [compound 106, 2-(2,6-Dichloro-phenyl)-5-[4-((R)-3-fluoro-pyrrolidine-1-carbonyl)-phenylamino]-2H-[1,2,3]triazole-4-carboxylic acid amide], the IC50 in assay [3] was 100 to 1000 nM; in assay [4], < 10 nM; in assay [5], 100 to 1000 nM; in assay [6] it was 10 to 100 nM.
Turning to `NC(=O)c1nn(-c2c(Cl)cccc2Cl)cc1Nc1ccc(-c2nncn2C2CCCC2)cc1` [compound 202, 4-((4-(4-cyclopentyl-4H-1,2,4-triazol-3-yl)phenyl)amino)-1-(2,6-dichlorophenyl)-1H-pyrazole-3-carboxamide], the IC50 in assay [1] lay within 100 to 1000 nM; in assay [2] it was 100 to 1000 nM; in assay [3], 100 to 1000 nM; in assay [4] it was 10 to 100 nM; in assay [5], 100 to 1000 nM; in assay [6], 100 to 1000 nM.
Consider `CC(C)Cn1cnnc1-c1ccc(Nc2cn(-c3c(Cl)cccc3Cl)nc2C(N)=O)cc1` [compound 203, 1-(2,6-dichlorophenyl)-4-((4-(4-isobutyl-4H-1,2,4-triazol-3-yl)phenyl)amino)-1H-pyrazole-3-carboxamide], for which the IC50 in assay [3] was 100 to 1000 nM; in assay [4] it was < 10 nM; in assay [5], 100 to 1000 nM; in assay [6] it was 10 to 100 nM.
Regarding `CC(C)n1cnnc1-c1ccc(Nc2cn(-c3c(Cl)cccc3Cl)nc2C(N)=O)cc1` [compound 205, 1-(2,6-dichlorophenyl)-4-((4-(4-isopropyl-4H-1,2,4-triazol-3-yl)phenyl)amino)-1H-pyrazole-3-carboxamide], the IC50 was in the range of 100 to 1000 nM in assay [1]; 100 to 1000 nM in assay [2]; 100 to 1000 nM in assay [3]; 10 to 100 nM in assay [4]; 100 to 1000 nM in assay [5]; 10 to 100 nM in assay [6].
